Earlier results as cited in EP0424553A1, “Substituted phenoxy alkanols for treatment of contact hypersensitivity” (priority 1989, dated 1991).

Assays:
rat mast cells = conditions: mediated by IgE- anti-IgE reaction
[1] = system: anaphylactic histamine release; conditions: compared with chlorphenesin

Row | Compound | degranulation of the rat mast cells (rat mast cells) | anaphylactic histamine release-preventive effect [1]
1 | O=C(O)c1cc(=O)c2c(OCC(O)COc3cccc4oc(C(=O)O)cc(=O)c34)cccc2o1 [cromolyn sodium] | inhibited | –
2 | chlorphenesin succinate | – | much superior to chlorphenesin
